In patent US20100004250A1, “PTERIDINE DERIVATIVES AS POLO-LIKE KINASE INHIBITORS USEFUL IN THE TREATMENT OF CANCER” (CHROMA THERAPEUTICS LTD., priority 2006, published 2010):

How the values were obtained:
PLK1 = target: T1, PLK1 (Homo sapiens, UniProt P53350); experiment: PLK1 enzyme assay (Z'-LYTE, Invitrogen); type: biochemical; details: ATP at or close to Km, 60 minute kinase reaction; read-out: Inhibitor Activity vs PLK1
T1 construct: purchased Invitrogen (Paisley, UK), assay service
Protocol: The ability of compounds to inhibit PLK-1 kinase activity was measured in an assay performed by Invitrogen (Paisley, UK). The Z′-LYTE™ biochemical assay employs a fluorescence-based, coupled-enzyme format and is based on the differential sensitivity of phosphorylated and non-phosphorylated peptides to proteolytic cleavage. The peptide substrate is labelled with two fluorophores—one at each end—that make up a FRET pair. In the primary reaction, the kinase transfers the gamma-phosphate of ATP to a single serine or threonine residue in a synthetic FRET-peptide. In the secondary reaction, a site-specific protease recognizes and cleaves non-phosphorylated FRET-peptides. Phosphorylation of FRET-peptides suppresses cleavage by the Development Reagent. Cleavage disrupts FRET between the donor (i.e., coumarin) and acceptor (i.e., fluorescein) fluorophores on the FRET-peptide, whereas uncleaved, phosphorylated FRET-peptides maintain FRET. A […] method, which calculates the ratio (the Emission Ratio) of donor emission to acceptor emission after excitation of the donor fluorophore at 400 nm, is used to quantitate reaction progress.
The final 10 μl Kinase Reaction consists of 2.8-25.3 ng PLK1, 2 μM Ser/Thr 16 Peptide substrate and ATP in 50 mM HEPES pH 7.5, 0.01% BRIJ-35, 10 mM MgCl2, 1 mM EGTA. The assay is performed at an ATP concentration at, or close to, the Km. After the 60 minute Kinase Reaction incubation at room temperature, 5 μl of a 1:8 dilution of Development Reagent is added. The assay plate is incubated for a further 60 minutes at room temperature and read on a fluorescence plate reader.
Duplicate data points are generated from a ⅓ log dilution series of a stock solution of test compound in DMSO. Nine dilutions steps are made from a top concentration of 10 μM, and a “no compound” blank is included. Data is collected and analysed using XLfit software from IDBS. The dose response curve is curve fitted to model number 205 (sigmoidal dose-response model). From the curve generated, the concentration giving 50% inhibition is determined and reported.

HCT 116 cell line = experiment: Cell inhibition assay (WST-1 proliferation); type: cell-based; details: Homo sapiens, 120 hrs incubation, read-out: Inhibitor Activity vs HCT 116 cell line
Protocol: Cells were seeded in 96W tissue culture plates (1 well=30 mm^2) at a density of 500 cells per well in 50 μl of the appropriate culture medium (see below). 24 hrs later 50 μl of the compound prepared in the same medium was added as 4 fold dilutions to give final concentrations in the range 0.15 nM-2500 nM (n=6 for each concentration). The plates were then incubated at 37° C., 5% CO2 for 120 hrs. Cell proliferation was assessed using WST-1 (a metabolic indicator dye, Roche Cat no. 1 644 807) according to the manufacturers instructions. The results were calculated as percentage of vehicle response and IC50 values represent the concentration of compound that inhibited the vehicle response by 50%.
HCT-116 Culture Medium—Dulbeccos MEM (Sigma D6546) plus 10% heat inactivated fetal calf serum (Hyclone SH30071 Thermo Fischer Scientific) containing 2 mM Glutamine (Sigma cat no G-7513) and 50 U/ml Penicillin and Streptomycin Sulphate (Sigma Cat no P-0781).

T1 sequence (P53350 whole entry): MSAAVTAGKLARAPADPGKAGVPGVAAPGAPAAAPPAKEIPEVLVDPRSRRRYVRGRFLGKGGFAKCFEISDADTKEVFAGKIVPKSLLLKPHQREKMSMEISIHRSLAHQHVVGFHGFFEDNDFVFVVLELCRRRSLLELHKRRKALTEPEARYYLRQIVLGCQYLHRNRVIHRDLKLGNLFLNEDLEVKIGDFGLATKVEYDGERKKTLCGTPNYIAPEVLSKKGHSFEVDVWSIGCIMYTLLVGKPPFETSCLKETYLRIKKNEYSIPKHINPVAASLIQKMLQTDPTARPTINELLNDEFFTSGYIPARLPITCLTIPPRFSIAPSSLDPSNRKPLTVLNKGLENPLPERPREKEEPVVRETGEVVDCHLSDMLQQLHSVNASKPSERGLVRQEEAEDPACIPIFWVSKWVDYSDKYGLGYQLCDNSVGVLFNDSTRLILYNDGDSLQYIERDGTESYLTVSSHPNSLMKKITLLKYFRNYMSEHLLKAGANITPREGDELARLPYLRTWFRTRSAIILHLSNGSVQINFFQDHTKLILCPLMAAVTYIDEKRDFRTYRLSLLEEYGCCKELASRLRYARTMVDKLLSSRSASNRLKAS

Row | SMILES | IC50 (PLK1) | IC50 (HCT 116 cell line)
1 | CC[C@@H]1C(=O)N(C)c2cnc(Nc3ccc(C(=O)NC4CCN(CCCC(=O)N[C@@H](CC(C)C)C(=O)OC5CCCC5)CC4)cc3OC)nc2N1C1CCCC1 [Example 1, Cyclopentyl N-(4-{4-[(4-{[(7R)-8-cyclopentyl-7-ethyl-5-methyl-6-oxo-5,6,7,8-tetrahydropteridin-2-yl]amino}-3-methoxybenzoyl)amino]piperidin-1-yl}butanoyl)-L-leucinate] | < 100 nM | < 100 nM
2 | CC[C@@H]1C(=O)N(C)c2cnc(Nc3ccc(C(=O)NC4CCN(CCCC(=O)N[C@H](CC(C)C)C(=O)OC5CCCC5)CC4)cc3OC)nc2N1C1CCCC1 [Example 2, Cyclopentyl N-(4-{4-[(4-{[(7R)-8-cyclopentyl-7-ethyl-5-methyl-6-oxo-5,6,7,8-tetrahydropteridin-2-yl]amino}-3-methoxybenzoyl)amino]piperidin-1-yl}butanoyl)-D-leucinate] | < 100 nM | < 100 nM
3 | CC[C@@H]1C(=O)N(C)c2cnc(Nc3ccc(C(=O)NC4CCN(CCCC(=O)N[C@H](C(=O)OC5CCCC5)c5ccccc5)CC4)cc3OC)nc2N1C1CCCC1 [Example 3, Cyclopentyl (2S)-[(4-{4-[(4-{[(7R)-8-cyclopentyl-7-ethyl-5-methyl-6-oxo-5,6,7,8-tetrahydropteridin-2-yl]amino}-3-methoxybenzoyl)amino]piperidin-1-yl}butanoyl)amino](Phenyl)acetate] | < 100 nM | < 100 nM
4 | CC[C@@H]1C(=O)N(C)c2cnc(Nc3ccc(C(=O)NC4CCN(CCCC(=O)N[C@@H](C(=O)OC5CCCC5)c5ccccc5)CC4)cc3OC)nc2N1C1CCCC1 [Example 4, Cyclopentyl (2R)-[(4-{4-[(4-{[(7R)-8-cyclopentyl-7-ethyl-5-methyl-6-oxo-5,6,7,8-tetrahydropteridin-2-yl]amino}-3-methoxybenzoyl)amino]piperidin-1-yl}butanoyl)amino](phenyl)acetate] | < 100 nM | < 100 nM
5 | CC[C@@H]1C(=O)N(C)c2cnc(Nc3ccc(C(=O)NC4CCN(CCCC(=O)N[C@@H](CC(C)C)C(=O)O)CC4)cc3OC)nc2N1C1CCCC1 [Example 18, N-(4-{4-[(4-{[(7R)-8-Cyclopentyl-7-ethyl-5-methyl-6-oxo-5,6,7,8-tetrahydropteridin-2-yl]amino}-3-methoxybenzoyl)amino]piperidin-1-yl}butanoyl)-L-leucine] | < 100 nM | 
6 | CC[C@@H]1C(=O)N(C)c2cnc(Nc3ccc(C(=O)NC4CCN(CCCC(=O)N[C@H](CC(C)C)C(=O)O)CC4)cc3OC)nc2N1C1CCCC1 [Example 19, N-(4-{4-[(4-{[(7R)-8-Cyclopentyl-7-ethyl-5-methyl-6-oxo-5,6,7,8-tetrahydropteridin-2-yl]amino}-3-methoxybenzoyl)amino]Piperidin-1-yl}butanoyl)-D-leucine] | < 100 nM | 
7 | CC[C@@H]1C(=O)N(C)c2cnc(Nc3ccc(C(=O)NC4CCN(CCCC(=O)N[C@H](C(=O)O)c5ccccc5)CC4)cc3OC)nc2N1C1CCCC1 [Example 20, (2S)-[(4-{4-[(4-{[(7R)-8-Cyclopentyl-7-ethyl-5-methyl-6-oxo-5,6,7,8-tetrahydropteridin-2-yl]amino}-3-methoxybenzoyl)amino]piperidin-1-yl}butanoyl)amino](phenyl)acetic acid] | < 100 nM | 
8 | CC[C@@H]1C(=O)N(C)c2cnc(Nc3ccc(C(=O)NC4CCN(CCCC(=O)N[C@@H](C(=O)O)c5ccccc5)CC4)cc3OC)nc2N1C1CCCC1 [Example 21, (2R)-[(4-{4-[(4-{[(7R)-8-Cyclopentyl-7-ethyl-5-methyl-6-oxo-5,6,7,8-tetrahydropteridin-2-yl]amino}-3-methoxybenzoyl)amino]piperidin-1-yl}butanoyl)amino](phenyl)acetic acid] | < 100 nM | 
9 | CC[C@@H]1C(=O)N(C)c2cnc(Nc3ccc(C(=O)NC4CCN(CCCC(=O)N[C@@H](C(=O)O)C5CCCCC5)CC4)cc3OC)nc2N1C1CCCC1 [Example 22, (2R)-Cyclohexyl[(4-{4-[(4-{[(7R)-8-cyclopentyl-7-ethyl-5-methyl-6-oxo-5,6,78-tetrahydropteridin-2-yl]amino}-3-methoxybenzoyl)amino]piperidin-1-yl}butanoyl)amino]acetic acid] | < 100 nM | 
10 | CC[C@@H]1C(=O)N(C)c2cnc(Nc3ccc(C(=O)NC4CCN(CCCCC(=O)N[C@@H](CC(C)C)C(=O)O)CC4)cc3OC)nc2N1C1CCCC1 [Example 23, N-(5-[4-[(4-{[(7R)-8-Cyclopentyl-7-ethyl-5-methyl-6-oxo-5,6,7,8-tetrahydropteridin-2-yl]amino}-3-methoxybenzoyl)amino]piperidin-1-yl]pentanoyl)-L-leucine] | < 100 nM | 
11 | CC[C@@H]1C(=O)N(C)c2cnc(Nc3ccc(C(=O)NC4CCN(CC(=O)N[C@@H](CC(C)C)C(=O)O)CC4)cc3OC)nc2N1C1CCCC1 [Example 24, N-({4-[(4-{[(7R)-8-Cyclopentyl-7-ethyl-5-methyl-6-oxo-5,6,7,8-tetrahydropteridin-2-yl]amino}-3-methoxybenzoyl)amino]piperidin-1-yl}acetyl)-L-leucine] | < 100 nM | 
12 | CC[C@@H]1C(=O)N(C)c2cnc(Nc3ccc(C(=O)NC4CCN(CCNC(=O)N[C@H](C(=O)O)C5CCCCC5)CC4)cc3OC)nc2N1C1CCCC1 [Example 25, (2S)-Cyclohexyl{[(2-{4-[(4-{[(7R)-8-cyclopentyl-7-ethyl-5-methyl-6-oxo-5,6,7,8-tetrahydropteridin-2-yl]amino}-3-methoxybenzoyl)amino]piperidin-1-yl}ethyl)carbamoyl]amino}acetic acid] | < 100 nM | 
13 | CC[C@@H]1C(=O)N(C)c2cnc(Nc3ccc(C(=O)Nc4ccc(CCCC(=O)N[C@@H](CC(C)C)C(=O)O)cc4)cc3OC)nc2N1C1CCCC1 [Example 26, N-(4-{4-[(4-{[(7R)-8-Cyclopentyl-7-ethyl-5-methyl-6-oxo-5,6,7,8-tetrahydropteridin-2-yl]amino}-3-methoxybenzoyl)amino]phenyl}butanoyl)-L-leucine] | < 100 nM | 
14 | CC[C@@H]1C(=O)N(C)c2cnc(Nc3ccc(C(=O)NCCCC(=O)N[C@@H](CC(C)C)C(=O)O)cc3OC)nc2N1C1CCCC1 [Example 27, N-{4-[(4-{[(7R)-8-Cyclopentyl-7-ethyl-5-methyl-6-oxo-5,6,7,8-tetrahydropteridin-2-yl]amino}-3-methoxybenzoyl)amino]butanoyl}-L-leucine] | < 100 nM | 
15 | CC[C@@H]1C(=O)N(C)c2cnc(Nc3ccc(/C=C/CCCC(=O)N[C@@H](CC(C)C)C(=O)O)cc3F)nc2N1C1CCCC1 [Example 28, N-[(5E)-6-(4-{[(7R)-8-Cyclopentyl-7-ethyl-5-methyl-6-oxo-5,6,7,8-tetrahydropteridin-2-yl]amino}-3-fluorophenyl)hex-5-enoyl]-L-leucine] | < 100 nM | 
16 | CC[C@@H]1C(=O)N(C)c2cnc(Nc3ccc(CCCCCC(=O)N[C@@H](CC(C)C)C(=O)O)cc3F)nc2N1C1CCCC1 [Example 29, N-[6-(4-{[(7R)-8-Cyclopentyl-7-ethyl-5-methyl-6-oxo-5,6,7,8-tetrahydropteridin-2-yl]amino}-3-fluorophenyl)hexanoyl]-L-leucine] | < 100 nM | 
17 | CC[C@@H]1C(=O)N(C)c2cnc(Nc3c(F)cc(/C=C/CCCC(=O)N[C@@H](CC(C)C)C(=O)O)cc3F)nc2N1C1CCCC1 [Example 30, N-[(5E)-6-(4-{[(7R)-8-Cyclopentyl-7-ethyl-5-methyl-6-oxo-5,6,7,8-tetrahydropteridin-2-yl]amino}-3,5-difluorophenyl)hex-5-enoyl]-L-leucine] | < 100 nM | 
18 | CC[C@@H]1C(=O)N(C)c2cnc(Nc3ccc(C(=O)N[C@H]4CC[C@@H](CCC(=O)N[C@@H](CC(C)C)C(=O)O)CC4)cc3OC)nc2N1C1CCCC1 [Example 31, N-(3-{cis-4-[(4-{[(7R)-8-Cyclopentyl-7-ethyl-5-methyl-6-oxo-5,6,7,8-tetrahydropteridin-2-yl]amino}-3-methoxybenzoyl)amino]cyclohexyl}propanoyl)-L-leucine] | < 100 nM | 
